From patent publication US20260345517A1, “DOSAGE REGIMENS FOR TREATING STARGARDT DISEASE” (Alkeus Pharmaceuticals, Inc., priority 2024, published 2026)

Assay: TEASE-1: safety and adverse events
Format: in vivo, human
Procedure: The Tolerability and Effects of gildeuretinol acetate in Stargardt Disease (Clinical trial group 1 also known as TEASE-1) was a 24-month, multicenter, double-masked, placebo-controlled trial designed to evaluate the efficacy and safety of daily oral gildeuretinol acetate in slowing the growth of atrophic retinal lesions in Stargardt disease patients. The trial was conducted at multiple sites in the United States (NCT02402660).
Patients 12 years or older, clinically diagnosed with Stargardt disease, with at least one ABCA4 mutation, at least one eye presenting with well-demarcated areas of reduced fundus autofluorescence, and with any visual acuity, were eligible.
Patients were randomized to gildeuretinol acetate 14 mg capsules, gildeuretinol acetate 24 mg capsules, or placebo capsules, to be taken once daily for one year. After one year, 50% of randomly selected patients receiving placebo were crossed over in a 1:1 ratio to gildeuretinol acetate 14 mg capsules or gildeuretinol acetate 24 mg capsules for a second year.
Gildeuretinol acetate and placebo capsules were identical appearing capsules. Patients were advised to avoid vitamin A-containing supplements and liver-based products. Fruits and vegetables contain beta-carotene, not preformed vitamin A, and could be consumed without limitation. Trial visits occurred at 8 weeks and 6, 12, 18, and 24 months following screening and randomization.

CC(=O)OC/C=C(C)/C=C/C=C(C)/C=C/C1=C(C)CCCC1(C)C [gildeuretinol acetate, C20-D3-retinol acetate]
changes by physical examination, electrocardiogram, vital signs, hematology, biochemistry and lipid panels (14 mg and 24 mg): no changes were attributed to gildeuretinol acetate | changes in visual acuity (14 mg and 24 mg): No changes in visual acuity were observed | discontinuation due to side effects (14 mg and 24 mg): no patient discontinued treatment due to side effects | serious adverse events (14 mg and 24 mg): No serious adverse events | severity of adverse events (14 mg and 24 mg): mild or moderate | association between treatment groups and frequency of adverse events (14 mg and 24 mg vs placebo): no association was observed | Abdominal discomfort (14 mg, N = 15): 0 patients (%) | Abdominal distension (14 mg, N = 15): 0 patients (%) | Abdominal pain upper (14 mg, N = 15): 0 patients (%) | Abnormal dreams (14 mg, N = 15): 0 patients (%) | Adverse events, Overall (14 mg, N = 15): 12 (80) patients (%) | Alanine aminotransferase increased (14 mg, N = 15): 1 (6.7) patients (%) | Alopecia (14 mg, N = 15): 2 (13.3) patients (%) | Ankle fracture (14 mg, N = 15): 1 (6.7) patients (%) | Arthralgia (14 mg, N = 15): 1 (6.7) patients (%) | Arthritis (14 mg, N = 15): 0 patients (%) | Aspartate aminotransferase increased (14 mg, N = 15): 1 (6.7) patients (%) | Back injury (14 mg, N = 15): 0 patients (%) | Back pain (14 mg, N = 15): 0 patients (%) | Blepharospasm (14 mg, N = 15): 0 patients (%) | Blood cholesterol increased (14 mg, N = 15): 0 patients (%) | Blood creatinine increased (14 mg, N = 15): 1 (6.7) patients (%) | Blood iron decreased (14 mg, N = 15): 0 patients (%) | Blood pressure increased (14 mg, N = 15): 0 patients (%) | Blood triglycerides increased (14 mg, N = 15): 1 (6.7) patients (%) | Bowel movement irregularity (14 mg, N = 15): 0 patients (%) | Bronchitis (14 mg, N = 15): 0 patients (%) | Cartilage injury (14 mg, N = 15): 1 (6.7) patients (%) | Conjunctival laceration (14 mg, N = 15): 0 patients (%) | Conjunctivitis (14 mg, N = 15): 1 (6.7) patients (%) | Constipation (14 mg, N = 15): 0 patients (%) | Cough (14 mg, N = 15): 0 patients (%) | Death (14 mg, N = 15): 1 (6.7) patients (%) | Depression (14 mg, N = 15): 1 (6.7) patients (%) | Diarrhoea (14 mg, N = 15): 1 (6.7) patients (%) | Diplopia (14 mg, N = 15): 0 patients (%) | Dry eye (14 mg, N = 15): 0 patients (%) | Dry mouth (14 mg, N = 15): 1 (6.7) patients (%) | Dry skin (14 mg, N = 15): 0 patients (%) | Ear discomfort (14 mg, N = 15): 0 patients (%) | Ear infection (14 mg, N = 15): 0 patients (%) | Ear pain (14 mg, N = 15): 0 patients (%) | Eczema (14 mg, N = 15): 0 patients (%) | Electrocardiogram abnormal (14 mg, N = 15): 0 patients (%) | Erythema (14 mg, N = 15): 0 patients (%) | Eye irritation (14 mg, N = 15): 1 (6.7) patients (%) | Eye pain (14 mg, N = 15): 0 patients (%) | Eye pruritus (14 mg, N = 15): 0 patients (%) | Face injury (14 mg, N = 15): 1 (6.7) patients (%) | Faeces soft (14 mg, N = 15): 1 (6.7) patients (%) | Fall (14 mg, N = 15): 1 (6.7) patients (%) | Gastroenteritis (14 mg, N = 15): 1 (6.7) patients (%) | Gastroenteritis viral (14 mg, N = 15): 0 patients (%) | Hair texture abnormal (14 mg, N = 15): 0 patients (%) | Hand fracture (14 mg, N = 15): 1 (6.7) patients (%) | Headache (14 mg, N = 15): 1 (6.7) patients (%) | Herpes zoster (14 mg, N = 15): 1 (6.7) patients (%) | Hordeolum (14 mg, N = 15): 0 patients (%) | Hypertension (14 mg, N = 15): 0 patients (%) | Hypobarism (14 mg, N = 15): 0 patients (%) | Hypothyroidism (14 mg, N = 15): 0 patients (%) | Hysterectomy (14 mg, N = 15): 0 patients (%) | Inflammation (14 mg, N = 15): 0 patients (%) | Influenza (14 mg, N = 15): 0 patients (%) | Insomnia (14 mg, N = 15): 1 (6.7) patients (%) | Intracranial pressure increased (14 mg, N = 15): 0 patients (%) | Irritability (14 mg, N = 15): 0 patients (%) | Jaw operation (14 mg, N = 15): 0 patients (%) | Knee arthroplasty (14 mg, N = 15): 1 (6.7) patients (%) | Laryngitis (14 mg, N = 15): 1 (6.7) patients (%) | Lip swelling (14 mg, N = 15): 0 patients (%) | Low density lipoprotein increased (14 mg, N = 15): 1 (6.7) patients (%) | Muscle spasms (14 mg, N = 15): 1 (6.7) patients (%) | Muscle strain (14 mg, N = 15): 0 patients (%) | Musculoskeletal pain (14 mg, N = 15): 1 (6.7) patients (%) | Nasopharyngitis (14 mg, N = 15): 2 (13.3) patients (%) | Nausea (14 mg, N = 15): 0 patients (%) | Neck pain (14 mg, N = 15): 0 patients (%) | Nephrolithiasis (14 mg, N = 15): 1 (6.7) patients (%) | Nerve compression (14 mg, N = 15): 0 patients (%) | Neuralgia (14 mg, N = 15): 1 (6.7) patients (%) | Obsessive-compulsive disorder (14 mg, N = 15): 0 patients (%) | Oropharyngeal pain (14 mg, N = 15): 0 patients (%) | Osteoporosis (14 mg, N = 15): 0 patients (%) | Pain (14 mg, N = 15): 2 (13.3) patients (%) | Pain in extremity (14 mg, N = 15): 1 (6.7) patients (%) | Pain in jaw (14 mg, N = 15): 0 patients (%) | Peripheral coldness (14 mg, N = 15): 0 patients (%) | Pharyngitis streptococcal (14 mg, N = 15): 1 (6.7) patients (%) | Photophobia (14 mg, N = 15): 1 (6.7) patients (%)
